Data set [1] deals with Plasmodium berghei KBG 173. As to the kind of experiment: Antimalarial blood schizonticidal test in mice. The class given is in vivo, Plasmodium berghei (infected ICR/HA Swiss mice). Set-up: ΔMST (increase in mean survival time): unit: days. Particulars: s.c.; for ED100 / minimal effective dose: Plasmodium berghei, sc, single dose; for ED100: read-out: Lowest Dose Curing All Mice; for minimal effective dose: read-out: Min. Curing Dose; for Cure/Treat at Min. Curing Dose: at the Min. Curing Dose. From the text:
(§1) In addition, the invention provides compounds which have antimalarial activity in vivo as evidenced by a standard blood schizonticidal test in mice infected with Plasmodium berghei KBG 173.
(§2) Utilizing young ICR/HA Swiss mice and a standard inoculum of Plasmodium berghei KBG 173, it is possible to produce a uniform disease fatal to 100% of untreated animals within 6 to 8 days with a mean survival time of 6.2 days. Test animals weigh from 18 to 22 grams but weight variations in any given experimental or control group are confined to 2-3 grams. All animals in any given test are approximately of the same age. Animals on test are housed in metal-topped plastic cages, given a standard laboratory diet and water ad libitum.
(§3) Test animals receive an intraperitoneal injection of 0.5 ml. of 1:100 dilution of heparinized heart's blood with a minimum of 90% parasitized cells (4 × 10^7 cells), drawn from donor mice infected one week earlier with Plasmodium berghei. The donor strain is maintained by weekly passages in separate groups of mice inoculated with a 0.5 ml. of 1:500 dilution of heparinized heart's blood.
(§4) Test compounds are administered after dissolution or suspension in peanut oil. A single dose is given subcutaneously 72 hours after the mice are infected with Plasmodium berghei. At this time a 10-15 percent parasitemia has developed; the disease is well established but has not produced sufficient debility to alter the response of the host to toxic effects of the drug on test. Since treatment is withheld for three days to permit the infection to become well established and death occurs in untreated controls within 6-8 days, it is felt that this system presents a candidate compound with the maximum challenge. In order to check factors such as changes in the infectivity of Plasmodium berghei or in the susceptibility of the host or to detect technical errors, a group of infected animals treated with pyrimethamine at dose levels producing definite increases in survival time is included in a positive control in every experiment.
(§5) In each experiment test compounds are administered in graded dosages. […] However, if an active drug is toxic for the host, its toxicity may become a limiting factor; continued increases in dose levels also increase the toxic effects and may result in the diminution of survival times. Deaths prior to the sixth day, when untreated controls begin to die, are regarded as nonparasitic and become the basis for toxicity evaluations. […] In calculating mean survival time, toxic deaths and 60-day survivors are not included.
(§6) Compounds are considered active which produce a cure in at least one test animal or which produce significant increases in mean survival times of the treated animals as compared with the mean survival times of untreated controls, provided that no drug related deaths (toxicity) are noted at the active dose.

Data set [2] can be described thus: Antimalarial blood schizonticidal test in mice. As to conditions: mouse, in vivo, sc, single dose, read-out: Highest Non-Lethal Dose. Set-up: ΔMST (increase in mean survival time): unit: days. Type of data set: in vivo, Plasmodium berghei (infected ICR/HA Swiss mice).
Source text: as §1, §2, §3, §4, §5, §6

The subject of the next data set is K. pneumoniae 10031. In words: In vitro antibacterial activity (MIC), K. pneumoniae 10031. Particulars: Klebsiella pneumoniae, 10031, 18 h.
The next data set has as its system P. vulgaris 6896. In words: In vitro antibacterial activity (MIC), P. vulgaris 6896. Particulars: Proteus vulgaris, 6896, 18 h.
A further data set deals with S. aureus Smith. In words: In vitro antibacterial activity (MIC), S. aureus Smith. As to conditions: Staphylococcus aureus, 18 h.
The subject of another data set is E. coli 9637. As to the kind of experiment: In vitro antibacterial activity (MIC), E. coli 9637. As to conditions: Escherichia coli, 9637, 18 h.
A further data set relates to N. catarrhalis 8193. In words: In vitro antibacterial activity (MIC), N. catarrhalis 8193. Particulars: 18 h.
The subject of another data set is S. paratyphi 11737. As to the kind of experiment: In vitro antibacterial activity (MIC), S. paratyphi 11737. Type of data set: cell-based. Particulars: Salmonella enterica, 18 h.
Another data set concerns S. aureus 53-180. In words: In vitro antibacterial activity (MIC), S. aureus 53-180. Particulars: Staphylococcus aureus, 53180, 18 h.
Where [3] appears, read: 336 h, alive on day 14 considered cured, no 60-day data.
Where [4] appears, read: infected mice, highest dose with no deaths for any reason.

The values below come from patent publication US4118561A, “7-(Substituted)-7H-pyrrolo[3,2-f]quinazoline-1,3-diamines” (priority 1977, dated 1978).

Molecules are shown by their SMILES. Converted amounts (≈) assume the structure as drawn. Read-outs that look alike come from different tables or passages of the source.

As for `Cc1ccc(Cn2ccc3c4c(N)nc(N)nc4ccc32)c(C)c1` [Example 22], the ED100 in [1] (setting [3]) came to 5 mg/kg. Also, the minimal effective dose in data set [1] (setting [3]) was 5 mg/kg. Moreover, the “Cure/Treat at Min. Curing Dose” value in data set [1] (alive on day 14 considered cured) is listed as 5/5. In addition, in [1] (dose 2.5 mg. per kg., alive on day 14 considered cured, no 60-day data), the “ΔMST (increase in mean survival time)” value came to 7.6. Further, in [2] (alive on day 14 considered cured, no 60-day data), the MTD was found to be 80 mg/kg. For the same compound, the MIC (usually the lowest concentration found to suppress growth) in the data set on K. pneumoniae 10031 was determined as 0.244 µg/mL (≈ 0.769 µM); in the data set with P. vulgaris 6896, 7.81 µg/mL (≈ 24.6 µM); in the data set on S. aureus Smith it was 0.244 µg/mL (≈ 0.769 µM); against E. coli 9637, 0.976 µg/mL (≈ 3.08 µM); against N. catarrhalis 8193, 0.0152 µg/mL (≈ 0.0479 µM); with S. paratyphi 11737, 3.4 µg/mL (≈ 10.7 µM). In addition, inhibition of growth against S. aureus 53-180 (MIC) required 0.244 µg/mL (≈ 0.769 µM).
On to `Cc1cccc(Cn2ccc3c4c(N)nc(N)nc4ccc32)c1` [Example 20], for which, in data set [1] (1440 h, 60-day survivors), the ED100 was found to be 20 mg/kg. Also, in data set [1] (1440 h, 60-day survivors), the minimal effective dose came to 5 mg/kg. Moreover, in data set [1] (60-day survivors), the “Cure/Treat at Min. Curing Dose” value is 4/5. The “ΔMST (increase in mean survival time)” value in data set [1] (dose 5 mg. per kg.) is recorded as 6.9. Further, the MTD in [2] (setting [4]) was found to be 320 mg/kg. In addition, the MIC amounted to 1.95 µg/mL (≈ 6.43 µM) in the data set with K. pneumoniae 10031; 1.95 µg/mL (≈ 6.43 µM) in the data set with P. vulgaris 6896; 0.976 µg/mL (≈ 3.22 µM) in the data set with S. aureus Smith; 0.488 µg/mL (≈ 1.61 µM) against E. coli 9637; 0.031 µg/mL (≈ 0.102 µM) in the data set on N. catarrhalis 8193; 1.95 µg/mL (≈ 6.43 µM) in the data set with S. paratyphi 11737. The compound further came in with an MIC with S. aureus 53-180 of 0.488 µg/mL (≈ 1.61 µM).
Take `Nc1nc(N)c2c(ccc3c2ccn3CCCc2ccccc2)n1` [Example 56]: the ED100 in data set [1] (1440 h, 60-day survivors) stood at 320 mg/kg. In [1] (1440 h, 60-day survivors), the minimal effective dose came to 160 mg/kg. For the same compound, the “Cure/Treat at Min. Curing Dose” value in data set [1] (60-day survivors) was 3/5. In addition, the “ΔMST (increase in mean survival time)” value in data set [1] (dose 80 mg. per kg.) amounted to 10.7. In addition, in data set [2] (this is the highest dose tested), the MTD is 640 mg/kg. For the same compound, the MIC in the data set with K. pneumoniae 10031, against P. vulgaris 6896, against S. aureus Smith, in the data set with E. coli 9637, with N. catarrhalis 8193 and with S. paratyphi 11737 was 250 µg/mL (≈ 788 µM) each time. The same compound displayed an MIC against S. aureus 53-180 of 250 µg/mL (≈ 788 µM).
For the compound `N#Cc1ccccc1Cn1ccc2c3c(N)nc(N)nc3ccc21` [Example 14], the ED100 in data set [1] (1440 h, 60-day survivors) is 40 mg/kg. In addition, in data set [1] (1440 h, 60-day survivors), the minimal effective dose was 10 mg/kg. Further, the “Cure/Treat at Min. Curing Dose” value in [1] (60-day survivors) is on record as 1/5. Also, the “ΔMST (increase in mean survival time)” value in data set [1] (dose 10 mg. per kg.) was 8.9. Besides, the MTD in [2] (setting [4]) was determined as 160 mg/kg. Further, the MIC in the data set on K. pneumoniae 10031 turned out to be 0.122 µg/mL (≈ 0.388 µM); against P. vulgaris 6896 it was 1.95 µg/mL (≈ 6.2 µM); against S. aureus Smith, 0.244 µg/mL (≈ 0.776 µM); in the data set on E. coli 9637 it was 0.244 µg/mL (≈ 0.776 µM); against N. catarrhalis 8193, 0.061 µg/mL (≈ 0.194 µM); against S. paratyphi 11737 it was 0.488 µg/mL (≈ 1.55 µM). Moreover, the MIC in the data set with S. aureus 53-180 came out at 0.244 µg/mL (≈ 0.776 µM).
For `CC(C)=CCn1ccc2c3c(N)nc(N)nc3ccc21` [Example 55], in data set [1] (1440 h, 60-day survivors), the minimal effective dose is 640 mg/kg. Moreover, the “Cure/Treat at Min. Curing Dose” value in data set [1] (60-day survivors) is 3/5. In [1] (dose 320 mg. per kg.), the “ΔMST (increase in mean survival time)” value was determined as 9.3. The MIC against K. pneumoniae 10031 is 0.488 µg/mL (≈ 1.83 µM); in the data set on P. vulgaris 6896 it was 7.81 µg/mL (≈ 29.2 µM); with S. aureus Smith, 1.95 µg/mL (≈ 7.29 µM); in the data set on E. coli 9637, 3.9 µg/mL (≈ 14.6 µM); in the data set on N. catarrhalis 8193, 0.0038 µg/mL (≈ 0.0142 µM); with S. paratyphi 11737, 7.81 µg/mL (≈ 29.2 µM). Besides, it took 0.976 µg/mL (≈ 3.65 µM) to inhibit growth in the data set on S. aureus 53-180 (MIC).
Consider `CC(C)CCn1ccc2c3c(N)nc(N)nc3ccc21` [Example 66, 7-(3-Methylbutyl)-7H-pyrrolo[3,2-f]quinazoline-1,3-diamine], for which, in data set [1] (dose 320 mg. per kg.), the “ΔMST (increase in mean survival time)” value was determined as 8.1. Besides, the minimal inhibitory concentration (MIC) in the data set with K. pneumoniae 10031 was 0.244 µg/mL (≈ 0.906 µM); in the data set on P. vulgaris 6896, 3.9 µg/mL (≈ 14.5 µM); against S. aureus Smith, 1.95 µg/mL (≈ 7.24 µM); against E. coli 9637, 0.976 µg/mL (≈ 3.62 µM); with N. catarrhalis 8193, 0.0038 µg/mL (≈ 0.0141 µM); in the data set on S. paratyphi 11737 it was 3.9 µg/mL (≈ 14.5 µM). The same compound yielded a minimal inhibitory concentration (MIC) against S. aureus 53-180 of 0.976 µg/mL (≈ 3.62 µM).
As for `Cc1ccccc1Cn1ccc2c3c(N)nc(N)nc3ccc21` [Example 19], the minimal effective dose in data set [1] (1440 h, 60-day survivors) amounted to 40 mg/kg. In addition, the “Cure/Treat at Min. Curing Dose” value in data set [1] (60-day survivors) is recorded as 3/5. For the same compound, the “ΔMST (increase in mean survival time)” value in data set [1] (dose 40 mg. per kg.) worked out at 8.4. Moreover, the MIC against K. pneumoniae 10031 stood at 0.122 µg/mL (≈ 0.402 µM); in the data set with P. vulgaris 6896, 7.81 µg/mL (≈ 25.7 µM); against S. aureus Smith it was 0.488 µg/mL (≈ 1.61 µM); against E. coli 9637, 0.976 µg/mL (≈ 3.22 µM); in the data set on N. catarrhalis 8193, 0.0152 µg/mL (≈ 0.0501 µM); against S. paratyphi 11737, 3.9 µg/mL (≈ 12.9 µM). The same compound gave an MIC in the data set with S. aureus 53-180 of 0.488 µg/mL (≈ 1.61 µM).
